The structures appear in SMILES notation. ≈ marks a conversion by molar mass, not a printed value. Read-outs that look alike come from different tables or passages of the source.

These results are taken from patent publication EP1131297B1, “CERTAIN SUBSTITUTED CAPROLACTAMS, PHARMACEUTICAL COMPOSITIONS CONTAINING THEM AND THEIR USE IN TREATING TUMORS” (Novartis AG, priority 1998, dated 2000).

In series [1] the test system is MDA-MB-435 tumor xenografts. The experiment in a line: Human tumor xenograft growth inhibition in athymic nude mouse model. In kind it is in vivo, athymic (nu/nu) mice. The note with it: for response vs control in vivo at 10 µmol/kg / response vs control in vivo at 33 µmol/kg / response vs control in vivo at 100 µmol/kg: Mus musculus, MDA-MB-435, iv, 504 h, read-out: %T/C. The procedure:
The histologic tumor type employed was MDA-MB-435 breast carcinoma.
Positive controls are carried out with doxorubicin administered 3 times per week i.v.
Anti-tumor activity was expressed as %T/C (Δ MTV of treated group ö Δ MTV of control group X100).
A general note: A xenograft is tissue or cells of one species grown in another, often human tumour cells in immunodeficient mice.

The test system of series [2] is MDA-MB-435 breast carcinoma. Description: Anchorage Dependent Growth Monolayer Assay (ADGMA), MTS readout. It counts as cell-based. The note with it: Homo sapiens, MDA-MB-435, 72 h, average ± S.D., 3-day exposure, A490. From the text: As indicated above, all of the compounds of formula I, and their corresponding pharmaceutically acceptable acid addition salts, are anti-tumor agents and are, therefore, useful in inhibiting the growth of various lymphomas, sarcomas, carcinomas, myelomas, and leukemia cell lines. […] This assay was adapted from the 60 cell line assay used by the National Cancer Institute (NCI) with the following modifications: 1) a single cell line representative for the important tumor type, viz., MDA-MB-435 breast carcinoma was utilized; 2) a tetrazolium derivative, viz., MTS, was utilized to determine cell density.
The ADGMA compares the number of viable cells following a 3-day exposure to a test compound relative to a number of cells present at the time the test compound was added. […] The absorbance at 490 nm (A490) of the formazan derivative is proportional to the number of viable cells. The IC50 for a test compound is the concentration of compound required to reduce the final cell number to 50% of the final control cell number. If cell proliferation is inhibited, the assay further defines compounds as cytostatic (cell number after 3-day compound incubation >cell number at time of compound addition) or cytotoxic (cell number after 3-day compound incubation <cell number at time of compound addition).
The MDA-MB-435 breast carcinoma line was obtained from the American Type Culture Collection (ATCC) and used between passages 4-20 following thawing. MDA-MB-435 breast carcinoma was maintained and plated in DME/F12 medium containing 10% fetal bovine serum, 15 mM HEPES (pH=7.4), penicillin 100 units/mL, and streptomycin 100 µg/mL.
Cell lines are trypsinized and counted using a Coulter counter to determine plating densities. Cells are then plated in their respective maintenance media (100 µL/well) in 96 well plates at the following densities: MDA-MB-435, 3,000 cells/well. The number of cells plates as determined in preliminary experiments, results in cell densities of 75-90% of confluency by 4 days after plating. Initial cell densities, assayed one day after plating, are roughly 0.15-0.20 absorbance units greater than the media blank. Ninety-six well plates are seeded on day 0 and the test compounds are added on day 1. A control plate is created for each cell line that receives media only in row A and cells in row B. One day following plating, test compounds are added (in a final volume of 100 µL) to the test plates. Control plates receive 10 µL MTS mixture (prepared fresh on day of addition to cell plates at a ratio of 10 µL of a 0.92 mg/mL solution of PMS to a 190 µL of a 2 mg/mL solution of MTS) and 100 µL media. A490 of control plates is read 4h after MTS addition to determine initial cell density values for each cell line. Three days after addition of test compound, 10 µL/well of MTS mixture is added to the test plates and A490 is read 4h later. A490 values for wells containing cells are corrected for media absorbance, then normalized to initial density readings to determine percent net growth. IC50 values are determined from graphs of percent net growth as a function of compound concentration. Percent net growth is calculated as (Cell + Drug A490 - Initial A490/Cell + Drug Vehicle A490 - Initial A490).

Another series is described as follows: physchem. The note with it: water.
[3] abbreviates: 10 µmol/kg i.v., 3X/week for 3 weeks.
Setting [4] is: 33 µmol/kg i.v., 3X/week for 3 weeks.
[5] abbreviates: 100 µmol/kg i.v., 3X/week for 3 weeks.
The mark [6] stands for this setting: 10 µmol/kg i.v., 3X/week for 3 weeks, * = statistically significant (p=<0.05).
Setting [7] is: 33 µmol/kg i.v., 3X/week for 3 weeks, * = statistically significant (p=<0.05).

A word on the IC50: it is the midpoint of a concentration-inhibition curve. A lower IC50 goes with greater potency in that assay. Usually solubility stands for the concentration that dissolves in the medium under given conditions. Higher therefore signals a readily soluble substance. As for `CO[C@@H](C(=O)N[C@H]1CC[C@@H](OC(=O)C2CCCCC2)CNC1=O)[C@H](O)[C@@H](O)[C@H](O)/C=C/C(C)(C)C` [Ex. 1, (2R, 3R, 4S, 5R, 6E)-3,4,5-trihydroxy-2-methoxy-8,8-dimethyl-N-[(3S, 6R)-hexahydro-2-oxo-6-(cyclohexylcarbonyl)oxy-2H-azepin-3-yl]non-6-enamide], in series [1] (setting [3]), the Dead/Total was 0/8 and the “Δ MTV” value worked out at 107 mm^3. For the same compound, in series [1] (setting [4]), the Dead/Total is listed as 0/8 and the “Δ MTV” value is reported as 43 mm^3. Moreover, in series [1] (setting [5]), the Dead/Total is 0/8 and the “Δ MTV” value is listed as -11 mm^3. In addition, in series [1], the response vs control in vivo at 10 µmol/kg was found to be 61%, the response vs control in vivo at 33 µmol/kg worked out at 24% and the response vs control in vivo at 100 µmol/kg is -6%. In series [2], this compound came in with an IC50 of 68 ± 40 nM. Moreover, the solubility in “Water solubility” was 3700 µg/mL (≈ 7.42 mM).

With `CO[C@@H](C(=O)N[C@H]1CC[C@@H](OC(=O)C2CCCC2)CNC1=O)[C@H](O)[C@@H](O)[C@H](O)/C=C/C(C)(C)C` [Ex. 2, (2R, 3R, 4S, 5R, 6E)-3,4,5-trihydroxy-2-methoxy-8,8-dimethyl-N-[(3S, 6R)-hexahydro-2-oxo-6-(cyclopentylcarbonyl)oxy-2H-azepin-3-yl]non-6-enamide], in series [1] (setting [3]), the Dead/Total is recorded as 0/8 and the “Δ MTV” value stood at 94 mm^3. For the same compound, in series [1] (setting [4]), the Dead/Total was 0/8 and the “Δ MTV” value is listed as 19 mm^3. Besides, the response vs control in vivo at 10 µmol/kg in series [1] (setting [6]) was determined as 67%. Also, the response vs control in vivo at 33 µmol/kg in series [1] (setting [7]) is 13%. The IC50 in series [2] turned out to be 115 ± 40 nM. The concentration in solution in the series “Water solubility” (solubility) was 18000 µg/mL (≈ 37.1 mM).

As for `CO[C@@H](C(=O)N[C@H]1CC[C@@H](OC(=O)CCc2ccccc2)CNC1=O)[C@H](O)[C@@H](O)[C@H](O)/C=C/C(C)(C)C` [Ex. 4, (2R, 3R, 4S, 5R, 6E)-3,4,5-trihydroxy-2-methoxy-8,8-dimethyl-N-[(3S, 6R)-hexahydro-2-oxo-6-(1-oxo-3-phenylpropoxy)-2H-azepin-3-yl]non-6-enamide], the solubility in the series “physchem” was determined as 800 µg/mL (≈ 1.54 mM). The Dead/Total in series [1] (setting [3]), in series [1] (setting [4]) and in series [1] (setting [5]) was 0/8 throughout. For the same compound, the “Δ MTV” value is on record as 93 mm^3 in series [1] (setting [3]), 21 mm^3 in series [1] (setting [4]) and -23 mm^3 in series [1] (setting [5]). Further, the response vs control in vivo at 10 µmol/kg in series [1] (setting [6]) is 53%. Moreover, the response vs control in vivo at 33 µmol/kg in series [1] (setting [7]) turned out to be 12%. Besides, in series [1] (100 µmol/kg i.v., 3X/week for 3 weeks, * = statistically significant (p=<0.05)), the response vs control in vivo at 100 µmol/kg is -13%. The same compound came in with an IC50 in series [2] of 10 ± 10 nM.
